Measurements taken from PubChem BioAssay (NCI).
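Five compound concentrations were applied to cells in 96-well plates for 48 hours; endpoints were derived by simple linear interpolation of the resulting dose-response curve. The concentration for 50% growth inhibition is given as GI50. At the TGI there is no net growth.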

Experiments:
Assay in all cases: DTP human tumour cell line panel, 48 h
OVCAR-4 ovarian = test system: OVCAR-4 ovarian
TK-10 renal = test system: TK-10 renal
HOP-62 NSCLC = test system: HOP-62 NSCLC
MDA-MB-435 = test system: MDA-MB-435
UACC-257 melanoma = test system: UACC-257 melanoma
SNB-19 CNS = test system: SNB-19 CNS
SF-539 CNS = test system: SF-539 CNS
UACC-62 melanoma = test system: UACC-62 melanoma
RXF 393 renal = test system: RXF 393 renal
HCT-15 colon = test system: HCT-15 colon
NCI/ADR-RES ovarian = test system: NCI/ADR-RES ovarian
T-47D breast = test system: T-47D breast
MCF7 breast = test system: MCF7 breast
SNB-75 CNS = test system: SNB-75 CNS
MDA-MB-231 breast = test system: MDA-MB-231 breast
CAKI-1 renal = test system: CAKI-1 renal
HT29 colon = test system: HT29 colon
HS 578T breast = test system: HS 578T breast
U251 CNS = test system: U251 CNS
HOP-92 NSCLC = test system: HOP-92 NSCLC
CCRF-CEM leukemia = test system: CCRF-CEM leukemia
K-562 leukemia = test system: K-562 leukemia
RPMI-8226 leukemia = test system: RPMI-8226 leukemia
M14 melanoma = test system: M14 melanoma
MOLT-4 leukemia = test system: MOLT-4 leukemia
SK-MEL-5 melanoma = test system: SK-MEL-5 melanoma
HCT-116 colon = test system: HCT-116 colon
NCI-H23 lung = test system: NCI-H23 lung
MDA-MB-468 breast = test system: MDA-MB-468 breast
SF-268 CNS = test system: SF-268 CNS

`Cn1cc(-c2nnc(N)nc2-c2c[nH]c3ccccc23)c2cc(Br)cnc21` showed a TGI (OVCAR-4 ovarian) of 21.2 µM, a GI50 (TK-10 renal) of 12.8 µM and a TGI (TK-10 renal) of 26.8 µM. For the same molecule, the GI50 (HOP-62 NSCLC) was 9.73 µM, the TGI (HOP-62 NSCLC) was 25.9 µM and the GI50 (MDA-MB-435) was 3.11 µM. The TGI (MDA-MB-435) was 10.4 µM, the GI50 (UACC-257 melanoma) was 13.4 µM and the TGI (UACC-257 melanoma) was 27.1 µM. For the same molecule, the GI50 (SNB-19 CNS) was 12.2 µM, the TGI (SNB-19 CNS) was 24.8 µM and the GI50 (SF-539 CNS) was 10.7 µM. For the same molecule, the TGI (SF-539 CNS) was 22.6 µM, the GI50 (UACC-62 melanoma) was 3.14 µM and the TGI (UACC-62 melanoma) was 16.8 µM. It also gave a GI50 (RXF 393 renal) of 3.37 µM, a TGI (RXF 393 renal) of 20.3 µM and a GI50 (HCT-15 colon) of 4.68 µM. The TGI (HCT-15 colon) was 32 µM, the GI50 (NCI/ADR-RES ovarian) was 10.7 µM and the TGI (NCI/ADR-RES ovarian) was 36.3 µM. It also gave a GI50 (T-47D breast) of 4.12 µM, a TGI (T-47D breast) of 24.9 µM and a GI50 (MCF7 breast) of 1.5 µM. For the same molecule, the TGI (MCF7 breast) was 15 µM, the GI50 (SNB-75 CNS) was 2.7 µM and the TGI (SNB-75 CNS) was 15.6 µM. It also gave a GI50 (MDA-MB-231 breast) of 7.8 µM, a TGI (MDA-MB-231 breast) of 27.6 µM and a GI50 (CAKI-1 renal) of 10.7 µM. For the same molecule, the TGI (CAKI-1 renal) was 22.5 µM, the GI50 (HT29 colon) was 10 µM and the TGI (HT29 colon) was 27.3 µM. It also gave a GI50 (HS 578T breast) of 4.92 µM, a TGI (HS 578T breast) of 32 µM and a GI50 (U251 CNS) of 10.5 µM. The TGI (U251 CNS) was 23.2 µM, the GI50 (HOP-92 NSCLC) was 4.44 µM and the TGI (HOP-92 NSCLC) was 24.1 µM. It also gave a GI50 (CCRF-CEM leukemia) of 4.8 µM, a TGI (CCRF-CEM leukemia) of 33.6 µM and a GI50 (K-562 leukemia) of 2.99 µM. It also gave a TGI (K-562 leukemia) greater than 100 µM, a GI50 (RPMI-8226 leukemia) of 6.43 µM and a TGI (RPMI-8226 leukemia) greater than 100 µM. It also gave a GI50 (M14 melanoma) of 10.8 µM, a TGI (M14 melanoma) of 23.9 µM and a GI50 (MOLT-4 leukemia) of 3.37 µM. The TGI (MOLT-4 leukemia) was 27.3 µM, the GI50 (SK-MEL-5 melanoma) was 6.84 µM and the TGI (SK-MEL-5 melanoma) was 19.8 µM. For the same molecule, the GI50 (HCT-116 colon) was 8.67 µM, the TGI (HCT-116 colon) was 21.2 µM and the GI50 (NCI-H23 lung) was 13.9 µM. For the same molecule, the TGI (NCI-H23 lung) was 36 µM, the GI50 (MDA-MB-468 breast) was 2.38 µM and the TGI (MDA-MB-468 breast) was 12.8 µM. The GI50 (SF-268 CNS) was 10.7 µM and the TGI (SF-268 CNS) was 27.3 µM.
